Where a SMILES comes first, the peptide text is derived from it. [ ]: non-standard residue; d: D form. The star is where a group is joined. Acryloyl(3-(3-pyridyl),E) = O=C(/C=C/c1cccnc1)*; 2Naphthoyl(6-OH) = O=C(c1ccc2cc(O)ccc2c1)*; Dihydrocaffeoyl = O=C(CCc1ccc(O)c(O)c1)*; X35 = O=C(/C=C\c1ccc(OS(=O)(=O)O)cc1)*; Desaminotyrosyl = O=C(CCc1ccc(O)cc1)*; Butanoyl(4-Ph) = O=C(CCCc1ccccc1)*; 1Naphthoyl = O=C(c1cccc2ccccc12)*; 2Naphthoyl = O=C(c1ccc2ccccc2c1)*; NMeF = CN[C@@H](Cc1ccccc1)C(=O)O; X34 = O=C(/C=C\c1ccc(Cl)cc1)*; Boc = CC(C)(C)OC(=O)*
What was measured:
Cavia porcellus [1] = species: Cavia porcellus; assay: Stimulation of amylase release in guinea pig pancreas; format: functional
Cavia porcellus [2] = species: Cavia porcellus; assay: Hydrolysis of phosphoinositide (PI) relative to maximal response elicited by CCK-8 in guinea pig pancreas.; format: functional
[3] = biological target: T1, Cholecystokinin receptor type A (Cavia porcellus, UniProt Q63931); assay: Inhibition of specific binding of [125I]BH-CCK-8 in guinea pig pancreas.
T1 sequence (Q63931 whole entry): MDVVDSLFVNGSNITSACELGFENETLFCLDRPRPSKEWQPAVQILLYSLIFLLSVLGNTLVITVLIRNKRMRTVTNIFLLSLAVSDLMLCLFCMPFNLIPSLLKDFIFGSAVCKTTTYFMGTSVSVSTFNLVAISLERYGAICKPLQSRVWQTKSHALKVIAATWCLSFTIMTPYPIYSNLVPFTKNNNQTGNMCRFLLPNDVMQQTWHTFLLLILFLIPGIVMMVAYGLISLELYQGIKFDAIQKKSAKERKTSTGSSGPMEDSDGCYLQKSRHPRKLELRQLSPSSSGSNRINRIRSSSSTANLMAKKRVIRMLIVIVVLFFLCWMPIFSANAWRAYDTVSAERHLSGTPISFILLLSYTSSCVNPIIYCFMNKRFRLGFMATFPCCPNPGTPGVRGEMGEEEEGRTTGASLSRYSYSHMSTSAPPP

Structure (SMILES) | EC50 (Cavia porcellus [1]) [nM] | Max (Cavia porcellus [2]) [%] | IC50 [3] [nM]
CSCC[C@H](NC(=O)[C@H](Cc1c[nH]c2ccccc12)NC(=O)OC(C)(C)C)C(=O)N[C@@H](CC(=O)O)C(=O)N[C@@H](Cc1ccccc1)C(N)=O | 2600 | 40 | –
CC(C)(C)OC(=O)N[C@@H](Cc1c[nH]c2ccccc12)C(=O)N[C@@H](CCCCNC(=O)c1cccc2ccccc12)C(=O)N[C@@H](CC(=O)O)C(=O)N[C@@H](Cc1ccccc1)C(N)=O (Boc-WK(1Naphthoyl)DF-NH2) | 79 | 61 | 57
CC(C)(C)OC(=O)N[C@@H](Cc1c[nH]c2ccccc12)C(=O)N[C@@H](CCCCNC(=O)c1ccc2cc(O)ccc2c1)C(=O)N[C@@H](CC(=O)O)C(=O)N[C@@H](Cc1ccccc1)C(N)=O (Boc-WK(2Naphthoyl(6-OH))DF-NH2) | 3.5 | 50 | 4.5
CN(C(=O)[C@H](CC(=O)O)NC(=O)[C@H](CCCCNC(=O)c1ccc2cc(O)ccc2c1)NC(=O)[C@H](Cc1c[nH]c2ccccc12)NC(=O)OC(C)(C)C)[C@@H](Cc1ccccc1)C(N)=O (Boc-WK(2Naphthoyl(6-OH))D[NMeF]-NH2) | 2.4 | 52 | 3.8
CC(C)(C)OC(=O)N[C@@H](Cc1c[nH]c2ccccc12)C(=O)N[C@@H](CCCCNC(=O)c1ccc2ccccc2c1)C(=O)N[C@@H](CC(=O)O)C(=O)N[C@@H](Cc1ccccc1)C(N)=O (Boc-WK(2Naphthoyl)DF-NH2) | 4 | 36 | 14
CC(C)(C)OC(=O)N[C@@H](Cc1c[nH]c2ccccc12)C(=O)N[C@@H](CCCCNC(=O)/C=C/c1cccnc1)C(=O)N[C@@H](CC(=O)O)C(=O)N[C@@H](Cc1ccccc1)C(N)=O (Boc-WK(Acryloyl(3-(3-pyridyl),E))DF-NH2) | 38 | 60 | 21
CN(C(=O)[C@H](CC(=O)O)NC(=O)[C@H](CCCCNC(=O)/C=C/c1cccnc1)NC(=O)[C@H](Cc1c[nH]c2ccccc12)NC(=O)OC(C)(C)C)[C@@H](Cc1ccccc1)C(N)=O (Boc-WK(Acryloyl(3-(3-pyridyl),E))D[NMeF]-NH2) | 28 | 74 | 28
CC(C)(C)OC(=O)N[C@@H](Cc1c[nH]c2ccccc12)C(=O)N[C@@H](CCCCNC(=O)CCCc1ccccc1)C(=O)N[C@@H](CC(=O)O)C(=O)N[C@@H](Cc1ccccc1)C(N)=O (Boc-WK(Butanoyl(4-Ph))DF-NH2) | 30000 | 19 | 910
CC(C)(C)OC(=O)N[C@@H](Cc1c[nH]c2ccccc12)C(=O)N[C@@H](CCCCNC(=O)CCc1ccc(O)cc1)C(=O)N[C@@H](CC(=O)O)C(=O)N[C@@H](Cc1ccccc1)C(N)=O (Boc-WK(Desaminotyrosyl)DF-NH2) | 92 | 77 | 120
CN(C(=O)[C@H](CC(=O)O)NC(=O)[C@H](CCCCNC(=O)CCc1ccc(O)cc1)NC(=O)[C@H](Cc1c[nH]c2ccccc12)NC(=O)OC(C)(C)C)[C@@H](Cc1ccccc1)C(N)=O (Boc-WK(Desaminotyrosyl)D[NMeF]-NH2) | 32 | 77 | 30
CC(C)(C)OC(=O)N[C@@H](Cc1c[nH]c2ccccc12)C(=O)N[C@@H](CCCCNC(=O)CCc1ccc(O)c(O)c1)C(=O)N[C@@H](CC(=O)O)C(=O)N[C@@H](Cc1ccccc1)C(N)=O (Boc-WK(Dihydrocaffeoyl)DF-NH2) | 300 | 44 | 160
CC(C)(C)OC(=O)N[C@@H](Cc1c[nH]c2ccccc12)C(=O)N[C@@H](CCCCNC(=O)/C=C\c1ccc(Cl)cc1)C(=O)N[C@@H](CC(=O)O)C(=O)N[C@@H](Cc1ccccc1)C(N)=O (Boc-WK(X34)DF-NH2) | 79 | 66 | –
CC(C)(C)OC(=O)N[C@@H](Cc1c[nH]c2ccccc12)C(=O)N[C@@H](CCCCNC(=O)/C=C\c1ccc(OS(=O)(=O)O)cc1)C(=O)N[C@@H](CC(=O)O)C(=O)N[C@@H](Cc1ccccc1)C(N)=O (Boc-WK(X35)DF-NH2) | 7.2 | 72 | –
